Source: PMC9929232, “On-demand male contraception via acute inhibition of soluble adenylyl cyclase” (Nature Communications, 2023)
“And” between values parts separate entries of the source, which are not always exact repeats. Equal entries are not always repeated.

Tests used:
mouse sperm [1] = experiment: cAMP generation in mouse sperm in vitro, incl. wash-out by dilution; conditions: 12 minutes
Method: For capacitation, sperm were incubated for 90 min in TYH containing 3 mg/ml BSA and 25 mM NaHCO3 in a 37 °C incubator. To control for the consequences of dilution during isolation of epididymal mouse sperm for ex vivo assays, we assessed the ability of bicarbonate to induce a prototypical pattern of tyrosine phosphorylation (pY) which is a widely used molecular hallmark of capacitation[53]. Bicarbonate-induced pY is known to be sAC dependent in vitro[20],[22],[35]. For experiments studying sperm from injected mice, ‘swim out’ was performed in 200 μl TYH, which corresponded to a 1:10 dilution from epididymis (20 μg cauda in 200 μl buffer). Capacitation-induced changes were assessed by adding 50 µl of ‘swim out’ sperm to increasing volumes of capacitating TYH buffer.
cAMP generation was measured in mouse and human sperm. […] For human sperm, aliquots of 2 × 10^6 cells were incubated for 30 min in the presence or absence of sAC inhibitor in non-capacitating or capacitating HTF buffer. In both cases, 0.1% DMSO was used as vehicle control.
After 5 min, 150 µl of sperm/inhibitor mix was diluted into 1.35 ml non-capacitating or capacitating media with no inhibitor. […] Sperm lysates were centrifuged at 2000 × g for 3 min and the cAMP in the supernatant was acetylated and quantified using the Direct cAMP ELISA kit (Enzo).

[2] = molecular target: T1, immobilized human sAC protein (Homo sapiens, UniProt Q96PN6); experiment: Surface plasmon resonance binding kinetics;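 also: Reference-channel response subtracted from active-channel response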; conditions: Fig. 1e
T1 construct: recombinant purified His-tagged sACt protein (50 μg/ml)
T1 sequence (Q96PN6 1-469 limits assumed): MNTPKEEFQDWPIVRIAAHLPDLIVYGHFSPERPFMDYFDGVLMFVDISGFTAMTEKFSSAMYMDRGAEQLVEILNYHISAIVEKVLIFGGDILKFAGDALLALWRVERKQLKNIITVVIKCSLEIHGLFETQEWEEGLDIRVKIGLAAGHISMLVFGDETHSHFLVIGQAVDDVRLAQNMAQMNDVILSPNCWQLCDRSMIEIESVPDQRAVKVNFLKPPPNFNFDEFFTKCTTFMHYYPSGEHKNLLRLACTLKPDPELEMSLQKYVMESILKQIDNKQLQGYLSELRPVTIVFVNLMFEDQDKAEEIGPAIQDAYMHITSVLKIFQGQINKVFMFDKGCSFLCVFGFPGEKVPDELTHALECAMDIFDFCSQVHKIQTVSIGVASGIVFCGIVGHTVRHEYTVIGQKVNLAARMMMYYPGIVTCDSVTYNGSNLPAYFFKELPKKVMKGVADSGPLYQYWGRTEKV
Method: Association and dissociation rate constants of sAC inhibitors were obtained with a Biacore 8K instrument (Cytiva) using a parallel kinetics protocol. Series S Sensor NTA chips (Cytiva) were prepared by applying recombinant purified His-tagged sACt protein (50 μg/ml) in PBS-P+ buffer (1 mM KH2PO4, 150 mM NaCl, 6 mM Na2HPO4, 0.05% (w/v) P20 Surfactant). The His-tagged sAC protein was captured via Ni^2+-His-tag chelation and covalently immobilized by amine coupling with a 1:1 mixture of 1-ethyl-3-(3-dimethylaminopropyl) carbodiimide and N-hydroxysuccinimide (active channels). After coupling, remaining reactive groups on the chip’s surface were blocked with 1 M ethanolamine followed by 350 mM EDTA to wash away any free Ni^2+. Following preparation, TBS-P+ running buffer (50 mM Tris, 150 mM NaCl, and 0.05% P20 Surfactant) supplemented with 1% DMSO was flowed over the surface of the chip until a stable baseline was obtained. For each sAC inhibitor, which were dissolved in DMSO and diluted in running buffer, increasing concentrations were injected into parallel channels for 120 s at a flow rate of 50 µl/min followed by running buffer for 600 s to allow for dissociation. All experiments included reference channels; i.e., inhibitor run over parallel channels without immobilized protein. […] Curves were fitted, and kon, KD, and koff values were determined using the Biacore 8K Insight Evaluation Software Version 2.0 (Cytiva) and a 1:1 binding kinetics model.

human sperm = experiment: Acrosome reaction assay, human sperm, progesterone-evoked; type: cell-based; conditions: Fig. 2h replicates, 5 μM TDI-10229 or 10 nM TDI-11861
Method: Acrosome reaction was induced by incubating mouse sperm with 50 mouse solubilized zonae pellucidae for 15 min at 37 °C. Human sperm were incubated with 10 μM progesterone for 30 min at 37 °C. […] Samples were air-dried on microscope slides and fixed for 30 minutes in 100% ethanol at room temperature (RT). For acrosome staining, mouse and human sperm were incubated for 30 min in the dark with 5 μg/ml PNA-FITC or 5 μg/ml PSA-FITC, respectively, and counterstained with 2 μg/ml DAPI. After curing, slides were analyzed using a Zeiss LSM 880 Laser Scanning Confocal Microscope; images were captured with two photomultiplier and one Gallium Arsenide Phosphide detector using ZEN Imaging software. For each condition, at least 600 cells were analyzed using ImageJ 1.52.

mouse sperm [3] = experiment: Flagellar beat frequency of tethered mouse sperm; type: cell-based
Method: An inverted dark-field video microscope (IX73; Olympus) with a 10 x objective (mouse sperm) or a 20 x objective (human sperm) (UPLSAPO, NA 0.8; Olympus) was combined with a high-speed camera (ORCA Fusion; Hamamatsu). Dark-field videos were recorded with a frame rate of 200 Hz. The temperature of the heated stage was set to 37 °C (stage top incubator WSKMX; TOKAI HIT). The images were preprocessed with the ImageJ plugin SpermQ Preparator (Gaussian blur with sigma 0.5 px; subtract background method with radius 5 px) and analyzed using the ImageJ plugin SpermQ[57]. The beat frequency was determined from the highest peak in the frequency spectrum of the curvature time course, obtained by Fast Fourier Transform.

epididymal mouse sperm [4] = experiment: Tyrosine phosphorylation (pY) Western blot of sperm from injected mice; conditions: for capacitation-induced pY pattern: 50 mg/kg i.p., 1 hour
Method: For capacitation, sperm were incubated for 90 min in TYH containing 3 mg/ml BSA and 25 mM NaHCO3 in a 37 °C incubator. To control for the consequences of dilution during isolation of epididymal mouse sperm for ex vivo assays, we assessed the ability of bicarbonate to induce a prototypical pattern of tyrosine phosphorylation (pY) which is a widely used molecular hallmark of capacitation[53]. […] For experiments studying sperm from injected mice, ‘swim out’ was performed in 200 μl TYH, which corresponded to a 1:10 dilution from epididymis (20 μg cauda in 200 μl buffer). Capacitation-induced changes were assessed by adding 50 µl of ‘swim out’ sperm to increasing volumes of capacitating TYH buffer.
Mouse sperm from vehicle- or inhibitor-injected mice were isolated 1 hour post injection from male mice injected (i.p.) with 150 µl of solution containing sAC inhibitor or vehicle. ‘Swim out’ sperm were diluted 1:1 to 1:100 in capacitating TYH media. As control, sperm from vehicle-injected mice were diluted 1:100 in non-capacitating and capacitating TYH buffer. The samples were incubated for 90 min, washed with 1 ml PBS and sedimented by centrifugation at 2000 × g for 3 min. The sedimented sperm were resuspended in 15 μl 2× Laemmli sample buffer, heated for 5 min at 95 °C, supplemented with 8 µl β-mercaptoethanol and heated again for 5 min at 95 °C. For Western blot analysis, proteins were transferred onto PVDF membranes (Thermo Scientific), probed with anti-phosphotyrosine (1:1000, clone 4G10, Merck Millipore) and anti-mouse IgG (1:10,000, Cell Signaling Technology) antibodies, and analyzed using a chemiluminescence detection system. Image lab (Bio-Rad) was used for densitometric analysis of western blots.

epididymal mouse sperm [5] = experiment: Ex vivo motility (CASA) of epididymal sperm from inhibitor-treated male mice; type: in vivo
Method: Sperm movements of 10 fields of at least 200 sperm were examined using computer-assisted sperm analysis (CASA) via Hamilton–Thorne digital image analyzer (IVOS II, Hamilton Thorne Research, Beverly, MA) with the following parameters: 30 frames, frame rate: 60 Hz, cell size: 30–170 μm^2. Ejaculated uterine mouse sperm were recorded without additional dilution. Sperm were considered motile when presenting STR ≥80% and VAP ≥50 μm/s and hyperactivated when presenting VCL ≥270 μm/s, LIN < 50%, and ALH ≥7 μm. Track´s color code: motile (green), progressive (turquoise), hyperactivated (purple), slow (pink), static (red), not counted due to late entry (yellow).

[6] = sheet Fig. 2a replicates, 5 μM TDI-10229 or 10 nM TDI-11861 present
[7] = sheet Fig. 2b replicates, 5 min preincubation in 5 μM TDI-10229 or 10 nM TDI-11861, diluted 1:100 into inhibitor-free media

**Q.** For Cc1c(Cc2ccccc2)c(-c2cc(Cl)nc(N)n2)nn1C [TDI-10229, reference compound], which “cAMP, capacitation media” value (mouse sperm [1]; [6]) is on record?
**A.** 0.708 pmol/10^6 sperm and 0.223 pmol/10^6 sperm and 0.8377 pmol/10^6 sperm and 0.328 pmol/10^6 sperm and 0.317 pmol/10^6 sperm and 0.164 pmol/10^6 sperm and 0.248 pmol/10^6 sperm and 0.209 pmol/10^6 sperm and 0.814 pmol/10^6 sperm and 0.028 pmol/10^6 sperm

**Q.** And the “cAMP, non-capacitation media” value (mouse sperm [1]; [6])?
**A.** 0.791 pmol/10^6 sperm and 0.172 pmol/10^6 sperm and 0.69 pmol/10^6 sperm and 0.464 pmol/10^6 sperm and 0.354 pmol/10^6 sperm and 0.286 pmol/10^6 sperm and 0.57 pmol/10^6 sperm and 0.578 pmol/10^6 sperm and 1.32 pmol/10^6 sperm and 0.473 pmol/10^6 sperm

**Q.** And the “cAMP, capacitation media” value (mouse sperm [1]; [7])?
**A.** 0.7514 pmol/10^6 sperm and 0.838 pmol/10^6 sperm and 0.907 pmol/10^6 sperm and 0.4366 pmol/10^6 sperm and 0.08556 pmol/10^6 sperm and 0.441 pmol/10^6 sperm and 0.751 pmol/10^6 sperm and 1.195 pmol/10^6 sperm

**Q.** What about the “cAMP, non-capacitation media” value (mouse sperm [1]; [7]) of the same compound?
**A.** 0.7446 pmol/10^6 sperm and 0.94 pmol/10^6 sperm and 1.147 pmol/10^6 sperm and 0.8426 pmol/10^6 sperm and 0.7363 pmol/10^6 sperm and 0.601 pmol/10^6 sperm and 0.752 pmol/10^6 sperm and 1.525 pmol/10^6 sperm

**Q.** What about the SPR sensorgram response ([2]; 2.3 nM, Time 1.8 s) of the same compound?
**A.** -0.005

**Q.** And the SPR sensorgram response ([2]; 2.3 nM, Time 1.9 s)?
**A.** -0.0004

**Q.** What about the SPR sensorgram response ([2]; 2.3 nM, Time 2 s) of the same compound?
**A.** 1.724e-7

**Q.** What about the SPR sensorgram response ([2]; 7 nM, Time 1.8 s) of the same compound?
**A.** 0.0365

**Q.** And the SPR sensorgram response ([2]; 7 nM, Time 1.9 s)?
**A.** 0.0954

**Q.** What about the SPR sensorgram response ([2]; 7 nM, Time 2 s) of the same compound?
**A.** 0.1127

**Q.** What about the SPR sensorgram response ([2]; 21 nM, Time 1.8 s) of the same compound?
**A.** 0.0362

**Q.** What about the SPR sensorgram response ([2]; 21 nM, Time 1.9 s) of the same compound?
**A.** 0.0362

**Q.** And the SPR sensorgram response ([2]; 21 nM, Time 2 s)?
**A.** 0.0493

**Q.** What about the SPR sensorgram response ([2]; 62 nM, Time 1.8 s) of the same compound?
**A.** 0.4405

**Q.** What about the SPR sensorgram response ([2]; 62 nM, Time 1.9 s) of the same compound?
**A.** 0.5261

**Q.** What about the SPR sensorgram response ([2]; 62 nM, Time 2 s) of the same compound?
**A.** 0.5966

**Q.** And the SPR sensorgram response ([2]; 185 nM, Time 1.8 s)?
**A.** 1.6528

**Q.** And the SPR sensorgram response ([2]; 185 nM, Time 1.9 s)?
**A.** 1.8027

**Q.** And the SPR sensorgram response ([2]; 185 nM, Time 2 s)?
**A.** 1.949

**Q.** What about the SPR sensorgram response ([2]; 555 nM, Time 1.8 s) of the same compound?
**A.** 3.219

**Q.** What about the SPR sensorgram response ([2]; 555 nM, Time 1.9 s) of the same compound?
**A.** 3.5189

**Q.** And the SPR sensorgram response ([2]; 555 nM, Time 2 s)?
**A.** 3.8049

**Q.** And the SPR sensorgram response ([2]; 1670 nM, Time 1.8 s)?
**A.** 10.7814

**Q.** What about the SPR sensorgram response ([2]; 1670 nM, Time 1.9 s) of the same compound?
**A.** 11.5936

**Q.** And the SPR sensorgram response ([2]; 1670 nM, Time 2 s)?
**A.** 12.3892

**Q.** What about the “Acrosome reacted (%), Prog” value (human sperm; 10 μM progesterone) of the same compound?
**A.** 8% and 18.1667% and 7.5% and 9% and 9.5% and 17.6667% and 10%

**Q.** What about the “Acrosome reacted (%), Prog + db-cAMP/IBMX” value (human sperm; 10 μM progesterone, 5 mM db-cAMP/500 μM IBMX) of the same compound?
**A.** 23% and 28.6636% and 15.5% and 15% and 16% and 30.6613% and 17.1667%

**Q.** And the “Acrosome reacted (%), basal + db-cAMP/IBMX” value (human sperm; 5 mM db-cAMP/500 μM IBMX)?
**A.** 8.5% and 15.8333% and 7.5% and 6.5% and 7% and 21.8333% and 11.3333%

**Q.** What about the “Acrosome reacted (%), basal” value (human sperm; 180 min capacitating media) of the same compound?
**A.** 6% and 15.1667% and 8% and 7% and 7.5% and 16.3548% and 6.667%

**Q.** What about the “Beat frequency, Basal” value (mouse sperm [3]; distal 10 μm of flagellum, 5 μM TDI-10229 or 10 nM TDI-11861, mean ± SEM) of the same compound?
**A.** 10.4 ± 0.8 Hz

**Q.** What about the “Beat frequency, + HCO3-” value (mouse sperm [3]; distal 10 μm, 25 mM NaHCO3, 5 μM TDI-10229 or 10 nM TDI-11861, mean ± SEM) of the same compound?
**A.** 11.7 ± 1.8 Hz

**Q.** And the “capacitation-induced pY pattern” value (epididymal mouse sperm [4]; diluted 25 fold)?
**A.** restored

**Q.** What about the “capacitation-induced pY pattern” value (epididymal mouse sperm [4]; swim out sperm mixed with equal volume capacitation media) of the same compound?
**A.** blocked

**Q.** What about the “normalized pY” value (epididymal mouse sperm [4]; Fig. S1f, 1:1 capacitating media) of the same compound?
**A.** 1.44 and 0.9739 and 0.9492 and 1.269 and 0.7377 and 0.8308 and 0.9909 and 0.9583

**Q.** What about the “normalized pY” value (epididymal mouse sperm [4]; Fig. S1f, 1:5 capacitating media) of the same compound?
**A.** 1.231 and 0.8896 and 0.8967 and 1.293 and 1.015 and 0.7938 and 1.073 and 0.7598

**Q.** And the “normalized pY” value (epididymal mouse sperm [4]; Fig. S1f, 1:10 capacitating media)?
**A.** 1.238 and 0.8061 and 0.8834 and 1.18 and 1.244 and 0.7753 and 1.106 and 0.8286

**Q.** And the “normalized pY” value (epididymal mouse sperm [4]; Fig. S1d, 1:1 capacitating media)?
**A.** 1.323 and 2.451 and 1.717 and 1.956

**Q.** And the “normalized pY” value (epididymal mouse sperm [4]; Fig. S1d, 1:5 capacitating media)?
**A.** 1.566 and 2.38 and 1.568 and 1.6103

**Q.** And the “normalized pY” value (epididymal mouse sperm [4]; Fig. S1d, 1:10 capacitating media)?
**A.** 1.95 and 2.076 and 2.342 and 1.601

**Q.** And the “normalized pY” value (epididymal mouse sperm [4]; Fig. S1d, 1:25 capacitating media)?
**A.** 1.653 and 2.642 and 2.388

**Q.** And the “normalized pY” value (epididymal mouse sperm [4]; Fig. S1d, 1:50 capacitating media)?
**A.** 1.946 and 2.557 and 2.122 and 1.827

**Q.** And the “normalized pY” value (epididymal mouse sperm [4]; Fig. S1d, 1:100 capacitating media)?
**A.** 1.953 and 2.689 and 1.737 and 1.751

**Q.** What about the “motility of epididymal sperm diluted ex vivo” value (epididymal mouse sperm [5]; 50 mg/kg oral) of the same compound?
**A.** motile and indistinguishable from sperm from vehicle-treated mice

**Q.** What about the “motility (%)” value (epididymal mouse sperm [5]; Fig. 3b replicates, 50 mg/kg oral gavage, 1 hour, diluted 1:100 in inhibitor-free non-capacitating media, CASA, 50 mg/kg) of the same compound?
**A.** 34.7% and 36.8% and 35.1% and 36.4% and 29.7% and 32.4% and 30.6% and 26% and 32% and 33.4% and 29.4%

**Q.** What about the “motility (%)” value (epididymal mouse sperm [5]; Fig. 3d, individual replicates) of the same compound?
**A.** 19.9% and 28.3% and 25% and 29.5% and 30.2% and 35.4% and 40.7% and 41.4% and 42.3%
